Laboratory results as given in patent publication US7282507B2, “Indole derivatives as selective androgen receptor modulators (SARMS)” (Janssen Pharmaceutica N.V., priority 2004, dated 2007).
Where “and” joins values, the source holds several entries; their conditions need not be identical. Equal values may be shown once.

Columns and labels:
[1] = system: testosterone-enhanced ventral prostate and seminal vesicle weights; assay: Ventral Prostate and Seminal Vesicle Weight in vivo Assay; design: species or system rat; conditions: immature castrated male Sprague Dawley rats, once daily for five days, usually orally 40 mg/kg, with testosterone propionate 2 mg/kg s.c. Note: key: 'active' if the non weight adjusted prostate weight was ≦40 mg or the % Inhibition prostate weight, body weight adjusted was ≧40% @ 2 mg/day dosage; ID50's, if determined, of ≦15 mg/day also indicated an 'active' compound; listed herein as 'inactive' as they did not meet the specified criteria defined above.
Procedure: Immature (approximately 50 g) castrated male Sprague Dawley rats (Charles River) were treated once daily for five days with test compound (usually given orally at 40 mg/kg in a volume of 0.3 mL, in 30% cyclodextrin or 0.5% methylcellulose vehicle) and with testosterone propionate (given subcutaneously by injection at the nape of the neck at 2 mg/kg, in a volume of 0.1 mL in sesame oil). On the sixth day, the rats were euthanized by asphyxiation in carbon dioxide. Ventral prosatates and seminal vesicles were removed and their wet weights determined.
A test compound was said to be “active” if the non weight adjusted prostate weight was ≦40 mg or the % Inhibition prostate weight, body weight adjusted was ≧40% @ 2 mg/day dosage.

[2] = molecular target: T1, androgen receptor (AdEasy+rAR, L929 cells) (Rattus norvegicus, UniProt P15207); assay: L929 Androgen Receptor Functional Assay, Adenovirus Transduction; format: cell-based; conditions: for % Activity, L929 androgen receptor functional assay / EC50: agonist testing; for inhibition at 3 µM: L929, antagonist testing with R1881, 3000 nM; for IC50: antagonist testing with R1881; for % Inhibition, L929 androgen receptor functional assay: antagonist testing with R1881, 3000 nM
T1 construct: expressed in transfected cells; host or cells: L929 cells transduced with adenovirus AdEasy+rAR
T1 sequence (P15207 1-902): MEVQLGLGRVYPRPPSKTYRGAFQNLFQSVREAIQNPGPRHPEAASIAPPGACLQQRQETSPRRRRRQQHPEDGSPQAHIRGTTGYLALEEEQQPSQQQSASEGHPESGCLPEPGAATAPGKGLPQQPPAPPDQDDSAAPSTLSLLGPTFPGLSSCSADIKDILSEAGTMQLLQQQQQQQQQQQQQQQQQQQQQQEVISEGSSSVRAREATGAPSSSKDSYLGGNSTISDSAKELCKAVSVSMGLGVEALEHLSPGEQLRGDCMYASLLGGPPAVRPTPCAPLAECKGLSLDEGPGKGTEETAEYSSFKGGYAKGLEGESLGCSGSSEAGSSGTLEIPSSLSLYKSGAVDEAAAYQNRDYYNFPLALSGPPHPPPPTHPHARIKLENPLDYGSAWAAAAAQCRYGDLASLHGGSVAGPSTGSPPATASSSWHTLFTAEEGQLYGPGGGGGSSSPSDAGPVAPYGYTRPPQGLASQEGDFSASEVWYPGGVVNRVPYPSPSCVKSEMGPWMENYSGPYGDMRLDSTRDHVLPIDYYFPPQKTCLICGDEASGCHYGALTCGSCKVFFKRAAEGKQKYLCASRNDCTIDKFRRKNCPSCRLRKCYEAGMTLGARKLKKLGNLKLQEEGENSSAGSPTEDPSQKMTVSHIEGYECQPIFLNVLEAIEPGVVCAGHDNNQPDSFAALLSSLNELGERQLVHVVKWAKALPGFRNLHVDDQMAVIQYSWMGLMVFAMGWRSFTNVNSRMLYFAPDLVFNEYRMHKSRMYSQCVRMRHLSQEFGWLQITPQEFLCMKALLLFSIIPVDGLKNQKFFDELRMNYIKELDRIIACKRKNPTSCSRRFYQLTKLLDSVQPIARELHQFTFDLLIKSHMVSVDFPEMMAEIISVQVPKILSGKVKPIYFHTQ
Procedure: L929 cells were plated in 96-well plates at 20,000 cells per well, in DMEM/F12 (GIBCO) containing 10% (v/v) charcoal-treated fetal bovine serum (Hyclone) and lacking phenol red. The plates were then incubated overnight at 37° C. in 5% (v/v) humidified CO2.
Test compound dilutions were prepared in 100% (v/v) DMSO, if necessary. Each dilution was made to 1250× the final desired assay concentration.
First, 2 mL of DMEM/F12 lacking phenol red was pipetted into the wells of a 2-mL 96-well assay block. Next, 4 μL of the 1250× test compound dilutions were pipetted into each well of the assay block. The mixtures within the well were then carefully mixed by pipette.
In a 15 mL or 50 mL sterile centrifuge tube, a 2.5 nM (2.5×) dilution of R1881 (methyl-trienolone) in DMEM/F12 lacking phenol red was prepared.
In a second 15 mL or 50 mL centrifuge tube a solution containing an equal volume of DMEM to the first and an equal volume of 100% (v/v) DMSO to the volume of R1881 used in the first tube was prepared.
In a 15 mL or 50 mL sterile centrifuge tube, a dilution in DMEM/F12 of the adenovirus AdEasy+rAR at an moi of 1:500 per well was prepared.
The medium was removed from the 96-well plates by inversion and dried, inverted, very briefly. As soon as possible after medium removal, 40 μL of the diluted unlabeled test compound was added to each well, in duplicate. To each well designated for antagonist testing was added 40 μL of the 2.5 nM R1881 dilution to the wells for antagonist testing. To each well designated for agonist testing was added 40 μL of the DMSO dilution. Then 20 μL of the diluted adenovirus were added to all wells. The plates were incubated for 48 hours at 37° C. in 5% (v/v) humidified CO2.
To each well was added 100 μL of Steady-Glo luciferase assay substrate (Promega) and the plates were placed on a rotary shaker for 1 min. The plates were then incubated at room temperature in the dark for one hour. The contents of each well were then transferred to a white microtiter plate (Packard) and read on a Luminoskan Ascent (Thermo Lab Systems).
L929 AR percent activity was determined by testing dilutions of the test compound using a concentration of 3000 nM unless otherwise noted. L929 percent inhibition was determined by testing dilutions of the test compound using a concentration of 3000 nM. […] Luciferase activity per well were measured and EC50s and IC50s determined by linear regression.

[3] = molecular target: T2, androgen receptor (rat ventral prostate cytosol) (Rattus norvegicus, UniProt P15207); assay: Androgen Receptor Binding Using Rat Ventral Prostate Cytosol; conditions: Concentration 1000 nM
T2 construct: from tissue; host or cells: ventral prostate cytosol of castrated male Sprague Dawley or Wistar rats
T2 sequence (P15207 1-902): T1 sequence (P15207 1-902)
Procedure: The assay was run on a 96 well plate with each well filled with a total reaction volume 150 μL, of a solution containing 5 pmol androgen receptor LBD (Panvera) or 30 μL of freshly prepared rat cytosol, 0.5 nM [^3H] […] (TED buffer contains 10 mM Tris.HCl pH 7.4, 1 mM sodium molybdate, 1.5 mM EDTA, 1 mM DTT and 10% (v/v) glycerol.)
On day one, the solution containing receptor, tracer and TED buffer was distributed into a 96 well plate. Diluted test compound or control vehicle was then added to individual wells and the plate incubated at 4° C. overnight.
On day two, to each well was then added 20 μL human γ-globulin (ICN 823102), prepared at 25 mg/ml in TE pH 8.0, and 55 μL 40% polyethylene glycol 8000 (J T Baker U222-08), prepared in TE pH 8.0. The plate was incubated at 4° C. for 60 minutes. During incubation, the harvester was rinsed with 10% PEG 8000, prepared in TE pH 8.0, and a GF/C Unifilter-96 was pre-wet with 10% PEG. The binding reaction was filtered, the retentate was washed three times with 10% PEG and dried under vacuum for a couple of minutes, then dried at 50° C. for 5 min and the plate was bottom sealed. Next, 25 μL of Microscint-20 (Packard) was added to the filter wells and the plate was top sealed. The plate wells were then counted on a TopCount (Packard).
Rat Prostate Cytosol Preparation:
Male Sprague Dawley or Wistar rats (Charles River, 200-300 g) were used for each preparation. The day before preparing the cytosol, the rats were castrated using standard surgical procedures.
The rats were euthanized by carbon dioxide asphyxiation. The rat prostates were quickly removed and placed on ice in pre-chilled, pre-weighed 50 mL plastic tubes. No more than five prostates were placed into one tube. The tubes were then weighed and the prostate tissue wet weights calculated.
To the chilled prostate tissue was then added […] of chilled homogenization buffer. The homogenization buffer was freshly prepared by mixing 10 mM Tris.HCl, pH 7.4, 1 mM sodium molybdate, 1.5 mM EDTA, 1 mM dithiothreitol, 10% (v/v) glycerol and 1% protease inhibitor cocktail (Sigma P 8340).
The prostate tissue was homogenized in a cold room using a pre-chilled Polytron PT3000 homogenizer (Brinkmann). Homogenization was performed at a speed setting of 20, three times for 10 sec bursts. The tubes containing the prostate tissue was kept on ice while homogenizing. The homogenate was allowed to rest on ice for 20 sec between bursts.
The homogenate was then placed into pre-chilled 3 mL polycarbonate ultracentrifuge tubes and centrifuged in the TLA-100 rotor of a TL-100 ultracentrifuge for 12 min at 100,000 rpm at 4° C. The resulting supernatant was stored in 1 mL aliquots at −80° C. until needed.
Binding to the androgen receptor was determined according to the protocol described in Example 86 using the above prepared rat cytosol.
% Inhibition was determined by testing dilutions of the test compound (usually duplicates of 10 μM) in the binding assay. Counts per well were measured and percents of inhibition determined. […] Counts per well were measured and IC50s determined by linear regression.

SMILES | active / inactive: inhibition of testosterone-enhanced prostate weight [1] | % Activity, L929 androgen receptor functional assay ([2]; 3000 nM) [%] | other results
CC[S+]([O-])CC(O)c1cc2cc([N+](=O)[O-])c(C(F)(F)F)cc2[nH]1 (mixture of isomers) [Compound 180] | inactive | 2 | 
CC[S+]([O-])CC(C)(O)c1cc2cc(C(F)(F)F)c([N+](=O)[O-])cc2[nH]1 (mixture of isomers) [Compound 230] | active | 0 | 
CSCCC(C)(O)c1cc2cc(Cl)c(C(F)(F)F)cc2[nH]1 (racemic) [Compound 51] | inactive | 2 | 
CCCSCC(C)(O)c1cc2cc(Cl)c(C(F)(F)F)cc2[nH]1 (racemic) [Compound 196] | inactive | 13 | 
CC(O)(CSCc1ccco1)c1cc2cc([N+](=O)[O-])c(C(F)(F)F)cc2[nH]1 (racemic) [Compound 198] | inactive | 7 | 
CC(O)(CS(=O)(=O)CC(F)(F)F)c1cc2cc([N+](=O)[O-])c(C(F)(F)F)cc2[nH]1 (racemic) [Compound 208] | active | 1 | 
CCSCC(C)(O)c1cc2cc([N+](=O)[O-])c(C(F)(F)F)cc2[nH]1 (racemic) [Compound 221] | inactive | −1 | 
CCS(=O)(=O)CC(C)(O)c1cc2cc(C#N)c(C(F)(F)F)cc2n1C (racemic) [Compound 240] | inactive | 0 | 
CC(O)(c1cc2cc([N+](=O)[O-])c(C(F)(F)F)cc2[nH]1)S(=O)(=O)c1ccc(Cl)c(Cl)c1 (racemic) [Compound 255] |  |  | % Inhibition, Androgen Receptor Binding (Rat Cytosol) [3]: 26%
CSC(C)(O)c1cc2cc([N+](=O)[O-])c(C(F)(F)F)cc2[nH]1 (racemic) [Compound 267] | inactive |  | % Activity, L929 androgen receptor functional assay ([2]; 3000 nM, 3 µM): −5% and 0%
CC(O)(CS(=O)(=O)CC(F)(F)F)c1[nH]c2cc([N+](=O)[O-])c(C(F)(F)F)cc2c1Cl (stereo not drawn) [Compound 207] | active |  | inhibition at 3 µM [2]: 101%; EC50 [2]: > 8000 nM; % Activity, L929 androgen receptor functional assay ([2]; 3000 nM, 3 µM): 1% and −1%; IC50 [2]: 492 nM; % Inhibition, L929 androgen receptor functional assay [2]: 101%
CCSCC(C)(O)c1cc2cc(C#N)c(C(F)(F)F)cc2[nH]1 (stereo not drawn) [Compound 218, 2-(2-Ethylsulfanyl-1-hydroxy-1-methyl-ethyl)-6-trifluoromethyl-1H-indole-5-carbonitrile] | inactive | 0 | % Inhibition, L929 androgen receptor functional assay ([2]; 3 µM): 62%
CCSCC(O)(CC)c1cc2cc(C#N)c(C(F)(F)F)cc2[nH]1 (stereo not drawn) [Compound 223] | active |  | inhibition at 3 µM [2]: 100%; EC50 [2]: > 8000 nM; % Activity, L929 androgen receptor functional assay ([2]; @ 8000 nM): 0 @ 8000 nM %; IC50 [2]: 277 nM
CC(O)(COc1ccc(C#N)cc1)c1cc2cc(C#N)c(C(F)(F)F)cc2[nH]1 (stereo not drawn) [Compound 426, 2-[2-(4-Cyano-phenoxy)-1-hydroxy-1-methyl-ethyl]-6-trifluoromethyl-1H -indole-5-carbonitrile] | inactive |  | 
CC(O)(COc1cccc([N+](=O)[O-])c1)c1cc2cc(C#N)c(C(F)(F)F)cc2[nH]1 (stereo not drawn) [Compound 428, 2-[1-Hydroxy-1-methyl-2-(3-nitro-phenoxy)-ethyl]-6-trifluoromethyl-1H -indole-5-carbonitrile] | inactive |  | 
CC(O)(COc1ccc(C#N)c(C(F)(F)F)c1)c1cc2cc(C#N)c(C(F)(F)F)cc2[nH]1 (stereo not drawn) [Compound 429, 2-[2-(4-Cyano-3-trifluoromethyl-phenoxy)-1-hydroxy-1-methyl-ethyl]-6-trifluoromethyl-1H-indole-5-carbonitrile] | inactive |  | 
